Data set [1] deals with human erythrocytes. In words: Hemolytic activity. Type of data set: cell-based. The following applies: 1 h at 37 °C; for HC50: Erythrocyte, read-out: ED50, Erythrocytes (hemolytic activity). The method, then: Human blood (B(III) Rh+) was used to obtain erythrocytes by centrifuging 450× g three times for 5 min with phosphate-buffered saline (PBS) (pH 7.4) at 4 °C on centrifuge LABOFUGE 400R (Heraeus, Hanau, Germany). Ice-cold PBS (pH 7.4) was used for resuspension of erythrocytes residue to a final optical density of 1.5 at 700 nm, which was kept on ice. Then, 10 µL of tested compound solution or control (okhotoside A1-1 (7)) were added to 90 µL of erythrocyte suspension in V-bottom 96-well plates and exposed for 1 h at 37 °C. Next, centrifugation at 900× g for 10 min on a laboratory centrifuge LMC-3000 (Biosan, Riga, Latvia), led to separation of layers, and 80 µL of supernatant was carefully decanted and transferred into new flat-plate for each. The values of erythrocyte lysis were measured on microplate photometer Multiskan FC (Thermo Fisher Scientific, Waltham, MA, USA) at λ = 570 nm as hemoglobin concentration in supernatant. The effective dose, causing lysis of 50% erythrocytes (ED50), was calculated with SigmaPlot 14.0 software. All the experiments were carried out in triple repetitions, p ≤ 0.05.

Another data set can be described thus: in vitro. It is filed as cell-based, human. The note with it: human. An excerpt:
(§1) Human erythrocytes were purchased from the Station of Blood Transfusion, Vladivostok. Human mammary epithelial cell line MCF-10A CRL-10317, human breast cancer cell lines T-47D HTB-133, MCF-7 HTB-22, and MDA-MB-231 CRM-HTB-26 were received from ATCC (Manassas, VA, USA). Culturing conditions: medium of RPMI-1640 with 1% penicillin/streptomycin (Biolot, St. Petersburg, Russia) and 10% fetal bovine serum (FBS) (Biolot, St. Petersburg, Russia) for the T-47D cell line; Minimum Essential Medium (MEM) with 1% penicillin/streptomycin sulfate (Biolot, St. Petersburg, Russia) and FBS (Biolot, St. Petersburg, Russia) to a final concentration of 10% for MCF-7 and MDA-MB-231 cells; DMEM/F12 medium with 10% FBS, 20 ng/mL EGF, […] hydrocortisone, 100 ng/mL cholera toxin, 10 μg/mL insulin, and 1% penicillin/streptomycin (BioinnLabs, Rostov-on-Don, Russia) for MCF-10A cell line.
(§2) The concentrations of tested glycosides were 0.1–50 µM; positive controls were cisplatin and okhotoside A1-1 (7). […] Then, the solutions of tested compounds with medium were replaced by 100 µL of fresh medium, and 10 µL of 3-(4,5-dimethylthiazol-2-yl)-2,5-diphenyltetrazolium bromide (MTT) (PanReac, AppliChem, Darmstadt, Germany) stock solution (5 mg/mL) was added to each well and incubated for 4 h, followed by the addition of 100 µL of SDS-HCl solution (1 g SDS/10 mL d-H2O/17 µL 6 N HCl) and further incubated for 18 h. Multiskan FC microplate photometer (Thermo Fisher Scientific, Waltham, MA, USA) was used to measure the absorbance of the converted dye formazan at 570 nm. The concentration caused the 50% cell metabolic activity inhibition (IC50) expresses the cytotoxic activity of each glycoside. The experiments were conducted in triplicate, p ≤ 0.05.

Another data set concerns MCF-7 cells. Briefly: cells. The note with it: MTT, 24 h, read-out: Cytotoxicity, IC50, MCF-7. It is filed as cell-based, human.
Excerpt: as §1
(§3) The concentrations of tested glycosides were 0.1–50 µM; positive controls were cisplatin and okhotoside A1-1 (7). Methodology: to each well of 96-well plates, the cell suspension (180 µL) with solution (20 µL) of tested glycoside in a certain concentration was placed (MCF-10A, MCF-7, T-47D, and MDA-MB-231—7 × 10^3 cells per well) and incubated in the atmosphere with 5% CO2 at 37 °C for 24 h. Then, the solutions of tested compounds with medium were replaced by 100 µL of fresh medium, and 10 µL of 3-(4,5-dimethylthiazol-2-yl)-2,5-diphenyltetrazolium bromide (MTT) (PanReac, AppliChem, Darmstadt, Germany) stock solution (5 mg/mL) was added to each well and incubated for 4 h, followed by the addition of 100 µL of SDS-HCl solution (1 g SDS/10 mL d-H2O/17 µL 6 N HCl) and further incubated for 18 h. Multiskan FC microplate photometer (Thermo Fisher Scientific, Waltham, MA, USA) was used to measure the absorbance of the converted dye formazan at 570 nm. The concentration caused the 50% cell metabolic activity inhibition (IC50) expresses the cytotoxic activity of each glycoside. The experiments were conducted in triplicate, p ≤ 0.05.

In a further data set the test system is T-47D cells. In words: cells. The following applies: MTT, 24 h, read-out: Cytotoxicity, IC50, T-47D. It is filed as cell-based, human.
Excerpt: as §1, §3

The test system of data set [2] is MDA-MB-231 cells. In words: cells. It is filed as cell-based, human.
Excerpt: as §1, §2

The subject of data set [3] is MCF-10A cells. In words: Colony formation (clonogenic) assay, MCF-10A. It is filed as cell-based, human. The method, then:
The influence of glycosides on colony formation by MCF-10A or MDA-MB-231 cells was tested by the clonogenic assay. Cell density: 0.3 × 10^2/mL for MDA-MB-231 and for MCF-10A cells per well; incubation conditions: 10–12 days, 37 °C, atmosphere with 5% CO2; obtained: visible to eye colonies (at least 50 cells per colony); fixation with methanol (25 min); staining with 0.5% solution of crystal violet (25 min); washing and air-drying of plates. The counting of grown colonies was carried out using a BIO-PRINT-Cx4 Edge-Fixed Pad-Container (Vilber, Collégien, France) using Bio-Vision Software user and service manual-v18.01 (Vilber, Collégien, France). The results are presented as colony inhibition in comparison with the control.

The test system of data set [4] is MDA-MB-231 cells. Briefly: Wound scratch migration assay. It is filed as cell-based, human. The following applies: 5 μM, 24 h. Here is the method: Attached to special migration plate plastic bottom MDA-MB-231 cells were separated by a silicone insert (Culture-insert 2 Well 24, ibiTreat). After removing an insert, the gap between the cells was 500 ± 50 μm. Cell debris and floating cells were deleted, and the fresh culture medium was added. Then, cells were treated with various concentrations of glycosides or culture medium only (vehicle control) and left for 24 hrs. Cell migration into the wound area was observed under a fluorescence microscope (MIB-2-FL, LOMO, Russia) with objective 10× magnification.

The test system of data set [5] is human erythrocytes. Also on record: method as in PMID 38132923. The following applies: studied earlier; ref [8]; cited from earlier work.
Data set [6] deals with MCF-10A cells. Briefly: in vitro. Type of data set: cell-based, human.
Excerpt: as §1, §2

Where [7] appears, read: 48 h, read-out: Cytotoxicity, IC50, 48 h, MCF-10A.
Setting [8] is: 72 h, read-out: Cytotoxicity, IC50, 72 h, MCF-10A.
Where [9] appears, read: MTT, 24 h, read-out: Cytotoxicity, IC50, MCF-10A.
The mark [10] stands for this setting: Homo sapiens, MDA-MB-231, 48 h, read-out: Cytotoxicity, IC50, 48 h, MDA-MB-231.
Where [11] appears, read: Homo sapiens, MDA-MB-231, 72 h, read-out: Cytotoxicity, IC50, 72 h, MDA-MB-231.
[12] abbreviates: Homo sapiens, MDA-MB-231, MTT, 24 h, read-out: Cytotoxicity, IC50, MDA-MB-231.

Read-outs that look alike come from different tables or passages of the source.

Results on 4 compounds are retold here after paper PMC11676834, “Composition of Triterpene Glycosides of the Far Eastern Sea Cucumber Cucumaria conicospermium Levin et Stepanov; Structure Elucidation of Five Minor Conicospermiumosides A3-1, A3-2, A3-3, A7-1, and A7-2; Cytotoxicity of the Glycosides Against Human Breast Cancer Cell Lines; Structure–Activity …” (Marine Drugs, 2024).

Usually IC50 stands for the midpoint of a concentration-inhibition curve. In general, inhibition refers to the change of the read-out against control, counted positive when it falls. Low readings indicate a weak effect, high ones a strong effect.

For the compound `CO[C@@H]1[C@@H](O)[C@H](O[C@@H]2[C@@H](O)[C@H](O[C@H]3[C@H](O)[C@@H](O[C@@H]4OC[C@@H](O)[C@H](O)[C@H]4O)[C@H](O[C@H]4[C@H](O[C@H]5CC[C@]6(C)C7=CC[C@]8(C)[C@@H]([C@@](C)(O)C(=O)CC=C(C)C)CC[C@@]8(C)C7CC[C@H]6C5(C)C)OC[C@@H](OS(=O)(=O)[O-])[C@@H]4O)O[C@@H]3C)O[C@H](COS(=O)(=O)[O-])[C@H]2O)O[C@H](COS(=O)(=O)[O-])[C@H]1O.[Na+].[Na+].[Na+]` (stereo partly drawn) [Conicospermiumoside A7-1 (4), 3β-O-{6-O-sodium sulfate-3-O-methyl-β-D-glucopyranosyl-(1→3)-6-O-sodium sulfate-β-D-glucopyranosyl-(1→4)-[(1→2)-β-D-xylopyranosyl]-β-D-quinovopyranosyl-(1→2)-4-O-sodium sulfate-β-D-xylopyranosyl}-(20R)-hydroxy-22-oxo-lanosta-9(11),24-diene], the HC50 in the data set on human erythrocytes [1] is 360 ± 40 nM. Moreover, the IC50 in “in vitro” (setting [7]) was 35.5 ± 1.59 µM; in “in vitro” (setting [8]), 11.1 ± 0.57 µM; in the data set “in vitro” (setting [9]) it was 40.2 ± 2.1 µM; in the data set on MCF-7 cells (Homo sapiens, MCF7), greater than 50 µM; with T-47D cells (Homo sapiens, T47D), 19.7 ± 1.01 µM; with MDA-MB-231 cells [2] (setting [10]), 15.3 ± 1.01 µM. In addition, the IC50 with MDA-MB-231 cells [2] (setting [11]) came out at 11.2 ± 0.73 µM; with MDA-MB-231 cells [2] (setting [12]) it was 4.78 ± 0.23 µM. Besides, the results for the “Tumor cell selectivity index (SI), IC50 MCF-10A / IC50 MDA-MB-231” value with MDA-MB-231 cells [2] (48 h) and with MDA-MB-231 cells [2] (72 h) were 2.32 and 0.99, respectively. In the data set with MCF-10A cells [3] (2 μM), the “Influence on colony formation and growth of MCF-10A cells” value was “did not influence”.
On to `C=C(C)CCC[C@]1(C)OC(=O)C23CC[C@H]4C(=CC[C@H]5C(C)(C)C(O[C@@H]6OC[C@@H](OS(=O)(=O)O)[C@H](O)[C@H]6O[C@@H]6O[C@H](CO)[C@@H](O[C@@H]7O[C@H](CO)[C@@H](O)[C@H](O[C@@H]8O[C@H](CO)[C@@H](O)[C@H](OC)[C@H]8O)[C@H]7O)[C@H](O)[C@H]6O[C@@H]6OC[C@@H](O)[C@H](O)[C@H]6O)CC[C@]45C)[C@]2(C)C[C@H](OC(C)=O)C31` (some centres unmarked) [Okhotoside B1 (8), okhotoside B1], for which, in the data set on human erythrocytes [1], the HC50 was 1050 ± 120 nM. The IC50 amounted to 15.5 ± 0.81 µM in the data set “in vitro” (setting [7]); 16.5 ± 0.98 µM in the data set “in vitro” (setting [8]); 41 ± 0.81 µM in the data set “in vitro” (setting [9]); 42.9 ± 2 µM with MCF-7 cells (Homo sapiens, MCF7); 20.3 ± 0.85 µM in the data set on T-47D cells (Homo sapiens, T47D); 11.7 ± 1 µM in the data set with MDA-MB-231 cells [2] (setting [10]). The figures for the IC50 with MDA-MB-231 cells [2] (setting [11]) and with MDA-MB-231 cells [2] (setting [12]) were 2.92 ± 0.07 µM and 11.3 ± 0.2 µM, respectively. Further, the “Tumor cell selectivity index (SI), IC50 MCF-10A / IC50 MDA-MB-231” value with MDA-MB-231 cells [2] (24 h) came to 3.61; in the data set with MDA-MB-231 cells [2] (48 h), 1.32; with MDA-MB-231 cells [2] (72 h), 5.65. This compound had an inhibition at 5 µM with MCF-10A cells [3] (Homo sapiens, MCF-10A, 5 μM, % of the control) of 40.2%. In addition, the “Constraint on cell motility (migration) of MDA-MB-231 cells” value in the data set with MDA-MB-231 cells [4] is 97%.
Consider `CO[C@@H]1[C@@H](O)[C@H](O[C@@H]2[C@@H](O)[C@H](O[C@H]3[C@H](O)[C@@H](O[C@@H]4OC[C@@H](O)[C@H](O)[C@H]4O)[C@H](O[C@H]4[C@H](O[C@H]5CC[C@]6(C)C7CC[C@]8(C)[C@@H]([C@@](C)(O)C(=O)CC=C(C)C)CC[C@@]8(C)C7=CC[C@H]6C5(C)C)OC[C@@H](OS(=O)(=O)[O-])[C@@H]4O)O[C@@H]3C)O[C@H](COS(=O)(=O)[O-])[C@H]2O)O[C@H](COS(=O)(=O)[O-])[C@H]1O.[Na+].[Na+].[Na+]` (some centres unmarked) [djakonovioside F1 (15), djakonovioside F1], for which the “Hemolytic activity (in words)” value with human erythrocytes [5] is “highly active”.
On to “DS-okhotoside B1 [DS-okhotoside B1 (8a)]”, for which the “ED50, Erythrocytes (hemolytic activity)” value with human erythrocytes [1] is on record as 0.33 ± 0.03 µM. The half-inhibitory concentration (IC50) in the data set on MCF-10A cells [6] (setting [7]) came to 5.81 ± 0.46 µM; with MCF-10A cells [6] (setting [8]), 2.77 ± 0.25 µM; in the data set on MCF-10A cells [6] (setting [9]), 9.87 ± 0.73 µM; in the data set on MCF-7 cells, 18.8 ± 0.71 µM; in the data set on T-47D cells, 9.62 ± 0.3 µM; in the data set with MDA-MB-231 cells [2] (48 h, read-out: Cytotoxicity, IC50, 48 h, MDA-MB-231) it was 2.63 ± 0.14 µM. Also, the IC50 in the data set on MDA-MB-231 cells [2] (72 h, read-out: Cytotoxicity, IC50, 72 h, MDA-MB-231) was 0.6 ± 0.03 µM; in the data set with MDA-MB-231 cells [2] (MTT, 24 h, read-out: Cytotoxicity, IC50, MDA-MB-231) it was 1.09 ± 0.08 µM. The “Tumor cell selectivity index (SI), IC50 MCF-10A / IC50 MDA-MB-231” value in the data set on MDA-MB-231 cells [2] (24 h) is listed as 9.06; in the data set with MDA-MB-231 cells [2] (24 h, listed as 8a), roughly 10; in the data set on MDA-MB-231 cells [2] (48 h), 2.21; in the data set with MDA-MB-231 cells [2] (72 h), 4.62. For the same compound, in the data set on MCF-10A cells [3] (0.5 μM), the “Influence on colony formation and growth of MCF-10A cells” value is listed as “did not influence”.
